Measured values published in publication PMC5705267 (Synapse (New York, N.Y.), 2017).
pIC50: −log10 of the molar value.

Target: GHSR1a (growth hormone secretagogue receptor 1a, ghrelin receptor) (Homo sapiens, UniProt Q92847)
Assay: aequorin Ca2+ mobilization, antagonism of L-692, […] in HEK293 cells
Format: cell-based

GHSR1a (growth hormone secretagogue receptor 1a, ghrelin receptor), sequence (Q92847 whole entry): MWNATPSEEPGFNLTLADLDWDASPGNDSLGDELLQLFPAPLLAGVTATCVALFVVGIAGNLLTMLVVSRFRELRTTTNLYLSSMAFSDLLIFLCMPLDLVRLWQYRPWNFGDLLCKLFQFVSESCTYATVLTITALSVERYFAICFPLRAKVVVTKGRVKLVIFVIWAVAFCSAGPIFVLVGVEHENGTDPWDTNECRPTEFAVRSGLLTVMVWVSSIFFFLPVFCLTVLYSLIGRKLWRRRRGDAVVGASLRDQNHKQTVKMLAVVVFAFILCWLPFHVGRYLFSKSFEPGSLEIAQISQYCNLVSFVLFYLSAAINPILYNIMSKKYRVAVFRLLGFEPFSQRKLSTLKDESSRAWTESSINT

pIC50: 6.73
Compound: Cc1nc2ccc(Oc3ccc(F)cc3)cc2c(=O)n1C[C@H]1CCCN(C(C)C)C1 [YIL781]
